This note sets out measurements from patent US20230092005A1, “COMPOSITIONS AND METHODS FOR TREATING CANCER AND TUMOR” (OBLATO, INC., priority 2020, published 2023).

One data set in a line: Solubility in water. It counts as physicochemical. Particulars: free acid. On the procedure: In certain embodiments, the 2,4-ds-PBN can be prepared by a two-step reaction sequence. For example, tertiary butyl […] (2-methyl-2-nitropropane) can be converted to the corresponding n-hydroxylamine using a suitable catalyst such as an activated zinc/acetic acid catalyst or an aluminum/mercury amalgam catalyst. This reaction can be carried out in about 0.5 to 12 hours and especially about 2 to 6 hours or so at a temperature of about 15-100° C. in a liquid reaction medium such as alcohol/water mixture in the case of the zinc catalyst or an ether/water mixture in the case of the aluminum amalgam catalyst. The freshly formed hydroxylamine can be reacted with 4-formyl-1,3-benzenedisulfonic acid, with a slight excess of the amine being used. This reaction can be carried out at similar temperature conditions. This reaction can be completed in from about 10 to about 24 hours. The formed material through the two reactions can be the free acid and be characterized by a molecular weight of 337.3 g/mole. In some embodiments, the formed material can be a white powdery material that decomposes upon heating. In non-limiting embodiments, the formed material can be characterized by solubility in water of greater than 1 gram/ml and a^1H NMR spectrum in D2O of 8.048 ppm (dd, 8.4, 1.7 Hz); 8.836 ppm (d, 8.4 Hz); 8.839 ppm (d, 1.7 Hz); 8.774 ppm (s).

Data set [1] relates to human A549 lung cancer xenografts. Description: Hematoxylin & Eosin (H&E) staining of extracted A549 xenograft tumors (necrosis grading). It counts as in vivo, BALB/c Nude mouse. The source says:
Histopathological test: The extracted tumors were fixed in 10% neutral buffered formalin solution (10% neutral buffered formalin). After sectioning the tumors to a certain thickness (about 3 mm), those were subjected to the general preparation procedure, embedded in paraffin, cut into 4 to 5 μm size, and tissue sections were stained with Hematoxylin and Eosin (H&E) and TUNEL. IHC (Immunohistochemistry) slides, cut into 4 to 5 μm size, were produced and sent to the sponsor (Negative Control Group (G1), Test substance 2 (G3, Animal ID Nos.: 1301, 1302, 1303, 1307, 1310), Test substance 3 (G4, Animal ID Nos.: 1401, 1402, 1404, 1408, 1409)). Determination of Hematoxylin & Eosin (H&E) staining results: Necrosis of tumors was assessed by grading (±, +, ++, +++, ++++) the extent of necrosis in the whole section of the tumor. Necrosis was evaluated by morphological changes such as collapse or disappearance of the nucleus and eosinophilic change of cytoplasm. The extent of tumor necrosis was determined by the percentage of the following necrosis area. Histopathological test (Table 7, FIGS. 7-11): The extracted fixed tumor was cut to a certain thickness (about 3 mm), then subjected to general tissue treatment, paraffin-embedded to produce blocks, and tissue sections of 4 to 5 μm in size were prepared. Then, Hematoxylin & Eosin (H&E) staining and TUNEL staining were performed.

Data set [2] shares this test system. The data set can be described thus: TUNEL staining of extracted A549 xenograft tumors (apoptosis counting and grading). It counts as in vivo, BALB/c Nude mouse. Particulars: for Apoptosis counting No. (group mean ± S.D.): TUNEL positive cells per 1 mm^2; for Number of apoptotic cells in the tumor compared to the negative control group (G1): G5, 2 mg/kg, TUNEL. An excerpt:
Histopathological test: The extracted tumors were fixed in 10% neutral buffered formalin solution (10% neutral buffered formalin). After sectioning the tumors to a certain thickness (about 3 mm), those were subjected to the general preparation procedure, embedded in paraffin, cut into 4 to 5 μm size, and tissue sections were stained with Hematoxylin and Eosin (H&E) and TUNEL. IHC (Immunohistochemistry) slides, cut into 4 to 5 μm size, were produced and sent to the sponsor (Negative Control Group (G1), Test substance 2 (G3, Animal ID Nos.: 1301, 1302, 1303, 1307, 1310), Test substance 3 (G4, Animal ID Nos.: 1401, 1402, 1404, 1408, 1409)). Determination of TUNEL staining results: After histological examination of the entire cross-section of the tumor for grading (±, +, ++, +++, ++++) of apoptosis, the nucleated brown stained cells were read as […] was counted. The apoptosis of the tumor was determined by the number of positive cells per […] (1 mm^2). The apoptosis of the tumor was determined by calculating the average number of positive cells and graded into the corresponding severity. The number of positive cells in which apoptosis occurred was determined by counting the number of positive cells per unit area (1 mm^2). Histopathological test (Table 7, FIGS. 7-11): The extracted fixed tumor was cut to a certain thickness (about 3 mm), then subjected to general tissue treatment, paraffin-embedded to produce blocks, and tissue sections of 4 to 5 μm in size were prepared. Then, Hematoxylin & Eosin (H&E) staining and TUNEL staining were performed.

For data set [3] the test system is unchanged. Description: Anti-cancer efficacy in nude mice carrying human A549 lung cancer xenografts (tumor volume, tumor weight, growth inhibition rate). The class given is in vivo, BALB/c Nude mouse. Particulars: for Tumor volume (mean): G5, 2 mg/kg I.P. once a week. On the procedure:
The anti-cancer efficacy of OKN-007 was assessed after oral administration in nude mice carrying human A549 lung cancer xenografts implanted subcutaneously in the flank. Human lung cancer cell line, A549 was used. […] The frozen cells were thawed in a water bath. Cells were placed in a tube containing the medium and centrifuged (1,000 rpm, 5 minutes) to discard the supernatant. After re-suspending with the culture medium, cells were placed in a cell culture flask and incubated in a 5% CO2 incubator at 37° C. Cells were sub-cultured at a ratio of 1:5 when grown with confluency of 70-80% in the culture container. Cells cultured on the day of cell line transplantation were centrifuged (1,000 rpm, 5 minutes) to discard the supernatant and to make cell suspension with D-PB S. Then, the cell suspension was mixed with Matrigel at a ratio of 1:1 (5×10^7 cells/mL). BALB/c Nude mouse, [NT]-Foxnlnu/CrlOri, SPF was used. Sex, number, age, and body weight range of animals at receipt: The mice (65 mice) were male, 5 weeks old, and had about 14.5-19.6 g weight at the receipt. Cell transplantation: After the quarantine-acclimation period, the body weight measurement and cell transplantation in healthy animals were performed. […] Prepared cell (1×10^7 cells/0.2 mL) suspension was injected subcutaneously into the right flank with disposable syringes. […] Group assignment: After transplanting cells, each tumor size was monitored for 65 animals. When tumor volume reached within 87-112 mm^3, 50 animals were assigned to the respective groups with an average tumor volume of about 99 mm^3. Based on the tumor volume, animals were selected and randomly distributed into 5 groups (10 animals/group). Dosing Route: Oral administration. The route of administration was oral because the clinical application of the test substance is oral. Method and frequency of administration: For negative control and test substance, oral administration was performed once a day for 4 weeks for a total of 28 times using a disposable syringe. For positive control, intraperitoneal administration was performed once a week for 4 weeks for a total of 4 times using a disposable syringe. Dosing Route: The dose levels of the test substance were selected at 150, 300, and 600 mg/kg. The dose level of the positive substance was selected at 2 mg/kg. The dose volume was selected at 10 mL/kg for all groups, and the individual dose was calculated based on the bodyweight of animals just prior to dosing. Measurement of tumor volume: The largest diameter (a) and the smallest diameter (b) of each tumor were measured using calipers twice a week during the observation period. The tumor volume (TV) was calculated twice a week according to the following formula: TV (mm^3)=(a (mm)×b^2 (mm^2))/2. The volume of a tumor before administration to each animal was set to the value measured at the time of group assignment. Tumor removal and measurement of body weight: After the observation period, animals were anesthetized by inhalation of isoflurane. After the tumor was extracted, the weight of the removed tumor was recorded. The tumor growth inhibition rate (IR) was calculated using the following formula: IR (%)=(1-T/C)×100, where T is a mean tumor weight in the test substance group, and positive substance group, and C is a mean tumor weight in the negative control group.

In turn, `CC(C)(C)/[N+]([O-])=C\c1ccc(S(=O)(=O)O)cc1S(=O)(=O)O` [2,4-ds-PBN, 2,4-disulfonyl a-phenyl tert-butyl nitrone] had a solubility in “Solubility in water” of over 1000 mg/mL.
On to `N.N.[Cl][Pt][Cl]` [cisplatin, Cis-Diammineplatinum (II) dichloride, reference compound], for which the “Necrosis grade + : number of animals” value in data set [1] (G5, 2 mg/kg I.P., N=10) came to 2. Further, the “Necrosis grade ++ (moderate): number of animals” value in data set [1] (G5, 2 mg/kg I.P., N=10) was 2. Moreover, in data set [1] (G5, 2 mg/kg I.P., N=10), the “Necrosis grade +++ (marked): number of animals” value is listed as 0. Also, the “Necrosis grade ++++ (severe): number of animals” value in data set [1] (G5, 2 mg/kg I.P., N=10) worked out at 0. Besides, the “Necrosis grade ± (minimal): number of animals” value in data set [1] (G5, 2 mg/kg I.P., N=10) stood at 6. For the same compound, the “Severity of necrosis compared to the negative control group (G1)” value in data set [1] (G5, 2 mg/kg, H&E) is recorded as “does not significantly different”. Besides, in data set [2] (G5, 2 mg/kg I.P., N=10), the “Apoptosis grade + : number of animals” value turned out to be 2. Further, in data set [2] (G5, 2 mg/kg I.P., N=10), the “Apoptosis grade ++ (moderate): number of animals” value is listed as 0. Besides, the “Apoptosis grade +++ (marked): number of animals” value in data set [2] (G5, 2 mg/kg I.P., N=10) is listed as 0. Moreover, the “Apoptosis grade ++++ (severe): number of animals” value in data set [2] (G5, 2 mg/kg I.P., N=10) stood at 0. Also, the “Apoptosis grade ± (minimal): number of animals” value in data set [2] (G5, 2 mg/kg I.P., N=10) was determined as 8. Besides, the “Apoptosis counting No. (group mean ± S.D.)” value worked out at 87.5 ± 50.6 No./mm^2 in data set [2] (G5, 2 mg/kg I.P.) and 87.5±50.6 No./mm^2 in data set [2] (G5, 2 mg/kg I.P., listed as Cisplatin). Also, the “Number of apoptotic cells in the tumor compared to the negative control group (G1)” value in data set [2] is listed as “significant increase in the number of apoptotic cells”; in data set [2] (listed as Cisplatin), “no statistically significant difference”. Further, the “Tumor weights (mean)” value in data set [3] (G5, 2 mg/kg I.P. once a week for 4 weeks, tumors weighed at day 29) was determined as 0.37 g. Also, the “Tumor volume (mean)” value in data set [3] (day 1 (before administration)) is 99 mm^3; in data set [3] (day 5 after administration) it was 152 mm^3; in data set [3] (day 8 after administration), 171 mm^3; in data set [3] (day 12 after administration), 176 mm^3; in data set [3] (day 15 after administration), 199 mm^3; in data set [3] (day 19 after administration) it was 250 mm^3. For the same compound, the “Tumor volume (mean)” value in data set [3] (day 22 after administration) is listed as 314 mm^3; in data set [3] (day 26 after administration), 385 mm^3; in data set [3] (day 29 after administration), 481 mm^3. Also, the “Tumor growth inhibition rate (IR)” value in data set [3] (G5, 2 mg/kg I.P., IR=(1-T/C)x100 from mean tumor weights, day 29) is 59.8%. Further, in data set [3] (G5, 2 mg/kg, end of the observation period), the “Tumor volume and size compared to the negative control” value is “statistically significant decrease in tumor volume and size”.
